Structures can show the parent of a compound that is named as a salt.

On to `CC(=O)c1nc2c(s1)Sc1ccccc1N=C2N1CCN(C)[C@@H](CCc2cccc(F)c2)C1.Cl.Cl`, for which the melting point was in the range of 130 to 132 °C.

In turn, `CN1CCN(C2=Nc3ccccc3Sc3ccccc32)C[C@@H]1CCc1ccccc1` returned a melting point of 44 to 54 °C.

Consider `CCc1nc2c(s1)Sc1ccccc1N=C2N1CCN(C)[C@@H](CCc2cccc(F)c2)C1.Cl`, for which the melting point was in the range of 133 to 135 °C.

Regarding `CCc1cc2c(s1)Sc1ccccc1N=C2N1CCN(C)[C@@H](CCOC)C1.Cl.Cl`, the melting point fell in the range of 181 to 187 °C.

The compound `CCc1nc2c(s1)Sc1ccccc1N=C2N1CCN(C)[C@@H](CCc2ccc(OC)cc2)C1.Cl` returned a melting point of 129 to 130 °C.

On to `c1ccc(C[C@H]2CN(C3=Nc4ccccc4Sc4ccccc43)CCN2)cc1`, for which the melting point lay in the range of 54 to 71 °C.

The compound `COCC[C@H]1CN(C2=Nc3ccccc3Sc3scnc32)CCN1` (as salt: hydrochloride) showed a melting point of 184 to 186 °C.

On to `CN1CCN(C2=Nc3ccccc3Sc3ccccc32)C[C@H]1Cc1ccccc1`, for which the melting point was 46 to 63 °C.

As to `COCC[C@H]1CN(C2=Nc3ccccc3Sc3sc(C(C)C)cc32)CCN1.Cl.Cl`, the melting point is 149 to 152 °C (dec.).

`c1ccc(CC[C@H]2CN(C3=Nc4ccccc4Sc4ccccc43)CCN2)cc1` gave a melting point of 48 to 59 °C.

`COCC[C@H]1CN(C2=Nc3ccccc3Sc3sc(C(C)=O)nc32)CCN1C.Cl.Cl` gave a melting point of 138 to 140 °C.

`CN1CCN(C2=Nc3ccccc3Sc3ccccc32)C[C@@H]1Cc1ccccc1` had a melting point of 48 to 64 °C.

Compound `COCC[C@H]1CN(C2=Nc3ccccc3Sc3scnc32)CCN1C` (as salt: hydrochloride) registered a melting point of 146 to 148 °C.

`COCC[C@H]1CN(C2=Nc3ccccc3Sc3sc(C(C)C)cc32)CCN1C.Cl.Cl`: the melting point was 143 to 147 °C (dec.).

In turn, `c1ccc(C[C@@H]2CN(C3=Nc4ccccc4Sc4ccccc43)CCN2)cc1` showed a melting point of 56 to 69 °C.

Broadly, the melting point is the temperature of the solid-liquid transition.
